According to patent publication US10670605B2, “Cysteine reactive probes and uses thereof” (The Scripps Research Institute, priority 2015, dated 2020):

Tests used:
Assay in all cases: Competitive isoTOP-ABPP in situ (fragment-treated cells)
Format in all cases: cell-based
[1] = target: T1, cysteines in MDA-MB-231 and Ramos cells (Homo sapiens, UniProt Q99497)
T1 sequence (Q99497 1-189): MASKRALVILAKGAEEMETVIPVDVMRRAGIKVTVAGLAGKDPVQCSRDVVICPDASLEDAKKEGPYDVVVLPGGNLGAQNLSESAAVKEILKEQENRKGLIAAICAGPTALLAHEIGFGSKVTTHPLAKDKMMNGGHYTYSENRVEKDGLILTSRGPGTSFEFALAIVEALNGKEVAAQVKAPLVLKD

[2] = target: cysteines in MDA-MB-231 and Ramos cells (Homo sapiens, UniProt Q16831)
Sequence of cysteines in MDA-MB-231 and Ramos cells (Homo sapiens, UniProt Q16831) (Q16831 whole entry): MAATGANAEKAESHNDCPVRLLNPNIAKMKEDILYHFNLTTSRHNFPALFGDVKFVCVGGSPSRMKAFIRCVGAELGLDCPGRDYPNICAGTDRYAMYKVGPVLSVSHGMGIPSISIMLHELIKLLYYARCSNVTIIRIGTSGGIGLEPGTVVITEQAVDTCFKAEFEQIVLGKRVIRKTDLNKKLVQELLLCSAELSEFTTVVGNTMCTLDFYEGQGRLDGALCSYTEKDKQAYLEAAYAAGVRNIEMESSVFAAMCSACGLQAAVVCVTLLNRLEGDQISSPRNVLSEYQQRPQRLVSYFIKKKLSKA

[3] = target: T2, cysteines in MDA-MB-231 and Ramos cells (Homo sapiens, UniProt O15294)
T2 sequence (O15294 1-1046): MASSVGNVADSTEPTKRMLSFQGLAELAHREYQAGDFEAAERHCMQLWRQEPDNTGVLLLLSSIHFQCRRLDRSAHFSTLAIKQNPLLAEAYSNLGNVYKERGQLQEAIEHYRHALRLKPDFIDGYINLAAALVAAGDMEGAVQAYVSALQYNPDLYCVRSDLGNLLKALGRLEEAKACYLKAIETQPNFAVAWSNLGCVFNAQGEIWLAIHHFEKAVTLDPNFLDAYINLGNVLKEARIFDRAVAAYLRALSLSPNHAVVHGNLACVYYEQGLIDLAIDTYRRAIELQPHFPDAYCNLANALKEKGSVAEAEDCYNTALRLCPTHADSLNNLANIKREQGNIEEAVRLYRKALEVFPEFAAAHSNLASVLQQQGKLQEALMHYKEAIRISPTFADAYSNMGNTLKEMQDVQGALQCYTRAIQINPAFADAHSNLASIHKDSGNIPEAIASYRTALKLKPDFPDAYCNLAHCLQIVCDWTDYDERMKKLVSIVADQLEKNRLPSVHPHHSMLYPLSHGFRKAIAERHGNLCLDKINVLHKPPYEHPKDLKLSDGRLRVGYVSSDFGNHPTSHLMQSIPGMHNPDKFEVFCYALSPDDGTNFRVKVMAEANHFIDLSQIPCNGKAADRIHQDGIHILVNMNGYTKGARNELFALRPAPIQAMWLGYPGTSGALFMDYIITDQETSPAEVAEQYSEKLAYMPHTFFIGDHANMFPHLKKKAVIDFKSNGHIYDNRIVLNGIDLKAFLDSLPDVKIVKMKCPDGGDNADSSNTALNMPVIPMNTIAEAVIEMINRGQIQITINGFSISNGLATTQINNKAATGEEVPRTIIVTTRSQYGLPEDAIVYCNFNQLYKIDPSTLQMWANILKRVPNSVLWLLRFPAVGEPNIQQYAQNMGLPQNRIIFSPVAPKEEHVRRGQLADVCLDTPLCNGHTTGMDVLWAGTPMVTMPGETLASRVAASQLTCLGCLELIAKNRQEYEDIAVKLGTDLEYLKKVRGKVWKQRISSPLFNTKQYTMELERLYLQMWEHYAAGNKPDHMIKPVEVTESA

[4] = target: T3, cysteines in MDA-MB-231 and Ramos cells (Homo sapiens, UniProt Q96T76)
T3 sequence (Q96T76 1-1030): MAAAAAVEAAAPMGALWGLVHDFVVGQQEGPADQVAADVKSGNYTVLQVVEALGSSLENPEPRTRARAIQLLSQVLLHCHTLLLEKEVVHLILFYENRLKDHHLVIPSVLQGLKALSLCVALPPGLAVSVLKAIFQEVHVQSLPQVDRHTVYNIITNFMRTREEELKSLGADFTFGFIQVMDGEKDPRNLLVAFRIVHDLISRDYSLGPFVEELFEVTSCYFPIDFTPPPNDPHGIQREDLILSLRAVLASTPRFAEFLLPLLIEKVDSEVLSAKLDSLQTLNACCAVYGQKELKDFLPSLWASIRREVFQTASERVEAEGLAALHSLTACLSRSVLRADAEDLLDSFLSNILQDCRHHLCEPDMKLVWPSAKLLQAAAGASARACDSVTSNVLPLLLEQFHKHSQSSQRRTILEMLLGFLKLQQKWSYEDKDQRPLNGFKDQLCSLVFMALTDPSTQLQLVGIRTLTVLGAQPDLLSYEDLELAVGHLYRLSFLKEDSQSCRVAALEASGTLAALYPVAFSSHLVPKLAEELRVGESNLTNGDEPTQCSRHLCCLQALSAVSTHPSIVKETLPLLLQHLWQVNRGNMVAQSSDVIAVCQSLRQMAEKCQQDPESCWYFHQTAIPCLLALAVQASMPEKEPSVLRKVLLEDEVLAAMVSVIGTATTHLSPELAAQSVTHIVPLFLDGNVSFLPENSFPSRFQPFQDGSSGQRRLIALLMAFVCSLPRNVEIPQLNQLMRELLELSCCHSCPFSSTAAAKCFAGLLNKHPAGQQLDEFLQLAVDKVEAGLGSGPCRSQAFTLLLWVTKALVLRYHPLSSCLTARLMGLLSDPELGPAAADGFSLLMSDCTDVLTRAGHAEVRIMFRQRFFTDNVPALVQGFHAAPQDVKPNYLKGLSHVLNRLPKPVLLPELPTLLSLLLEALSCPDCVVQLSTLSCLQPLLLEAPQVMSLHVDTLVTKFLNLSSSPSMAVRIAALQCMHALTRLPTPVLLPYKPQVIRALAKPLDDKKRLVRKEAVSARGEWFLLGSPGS

[5] = target: T4, cysteines in MDA-MB-231 and Ramos cells (Homo sapiens, UniProt Q5T0N5)
T4 sequence (Q5T0N5 1-605): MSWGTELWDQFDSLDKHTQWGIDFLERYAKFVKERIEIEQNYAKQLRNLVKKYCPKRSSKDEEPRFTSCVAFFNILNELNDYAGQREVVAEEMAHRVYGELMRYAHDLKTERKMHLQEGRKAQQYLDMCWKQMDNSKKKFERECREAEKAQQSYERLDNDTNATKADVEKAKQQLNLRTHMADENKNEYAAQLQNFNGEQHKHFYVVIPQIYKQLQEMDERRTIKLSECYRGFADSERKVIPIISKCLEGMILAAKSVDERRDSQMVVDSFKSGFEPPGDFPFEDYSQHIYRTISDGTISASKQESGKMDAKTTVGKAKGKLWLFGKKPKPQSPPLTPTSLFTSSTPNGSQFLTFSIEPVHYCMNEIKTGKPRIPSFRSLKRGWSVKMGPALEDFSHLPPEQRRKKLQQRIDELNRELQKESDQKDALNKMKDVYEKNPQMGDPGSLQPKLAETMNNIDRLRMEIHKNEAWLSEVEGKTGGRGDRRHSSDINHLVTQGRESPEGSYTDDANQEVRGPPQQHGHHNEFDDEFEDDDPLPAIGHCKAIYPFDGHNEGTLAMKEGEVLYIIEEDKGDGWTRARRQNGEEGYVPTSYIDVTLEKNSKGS

| Structure (SMILES) | isoTOP-ABPP ratio Q99497_C106 ([1]; 200 μM, insitu, 231) | isoTOP-ABPP ratio Q16831_C162 ([2]; 200 μM, insitu, 231) | isoTOP-ABPP ratio O15294_C758 ([3]; 200 μM, insitu, 231) | isoTOP-ABPP ratio Q5T0N5_C69 ([5]; 200 μM, insitu, 231) | isoTOP-ABPP ratio Q96T76_C848 ([4]; 200 μM, insitu, 231) | also measured |
| --- | --- | --- | --- | --- | --- | --- |
| COc1ccc(C2CC(c3cccs3)=NN2C(=O)CCl)cc1 (centres unmarked) [compound 4] |  |  |  |  |  | isoTOP-ABPP reactivity Q99497_C106 PARK7 ([1]; 100 μM in situ 231): 0.9; isoTOP-ABPP reactivity Q16831_C162 UPP1 ([2]; 100 μM in situ 231): 1.0; isoTOP-ABPP reactivity 015294_C758 OGT ([3]; 100 μM in situ 231): 6.4; isoTOP-ABPP reactivity O15294_C620 OGT ([3]; 100 μM in situ 231): 20.0; isoTOP-ABPP reactivity Q96T76_C848 MMS19 ([4]; 100 μM in situ 231): 20.0; isoTOP-ABPP reactivity Q5T0N5_C69 FNBP1L ([5]; 100 μM in situ 231): 20.0 |
| O=C(CCl)Nc1cccc2ncccc12 [compound 51] | 1.4 | 1.1 | 1.1 | 1.7 |  |  |
| CC1CCc2ccccc2N1C(=O)CCl (centres unmarked) [compound 45] | 20.0 | 1.3 | 2.9 | 5.4 | 20.0 | isoTOP-ABPP ratio Q96T76_C819 ([4]; 200 μM, insitu, 231): 20.0 |
| O=C(CCl)NC(=O)NC12CC3CC(CC(C3)C1)C2 [compound 12] | 3.0 | 0.9 | 20.0 | 20.0 | 20.0 |  |
| O=C(CCl)N1CCN(S(=O)(=O)c2ccccc2F)CC1 [compound 10] | 1.7 | 7.3 | 2.3 | 2.0 | 2.5 | isoTOP-ABPP ratio, cysteine O15294_C620 ([3]; 200 μM, insitu, ramos): 12 .0; isoTOP-ABPP ratio, cysteine Q96T76_C819 ([4]; 200 μM, insitu, ramos): 3.0 |
| O=C(CCl)N1CCN(CC(=O)N2CCOCC2)CC1 [compound 29] |  |  |  |  |  | isoTOP-ABPP ratio O15294_C620 ([3]; 200 μM, insitu, ramos): 2.6; isoTOP-ABPP ratio Q96T76_C848 ([4]; 200 μM, insitu, ramos): 1.0 |
| CC(C)CCOCCNC(=O)CCl [compound 27] | 0.9 | 0.5 | 1.0 | 0.6 | 0.5 | isoTOP-ABPP ratio Q96T76_C819 ([4]; 200 μM, insitu, 231): 0.5 |
| O=C(CCl)N1CCC(Cc2ccccc2)CC1 [compound 9] |  |  |  |  |  | isoTOP-ABPP reactivity Q16831_C162 UPP1 ([2]; 200 μM, insitu, 231): 7.7; isoTOP-ABPP reactivity 015294_C758 OGT ([3]; 200 μM, insitu, 231): 2.1; isoTOP-ABPP reactivity Q96T76_C848 MMS19 ([4]; 200 μM, insitu, 231): 20.0 |
| O=C(CCl)NC12CC3CC(CC(C3)C1)C2 [compound 21] |  | 1.6 | 1.1 | 0.8 | 0.7 |  |
| COc1ccc2c(c1)CCCN2C(=O)CCl [compound 2] |  |  |  |  |  | isoTOP-ABPP reactivity Q16831_C162 UPP1 ([2]; 200 μM, insitu, 231): 1.2; isoTOP-ABPP reactivity 015294_C758 OGT ([3]; 200 μM, insitu, 231): 2.6; isoTOP-ABPP reactivity Q96T76_C848 MMS19 ([4]; 200 μM, insitu, 231): 3.9; isoTOP-ABPP reactivity Q5T0N5_C69 FNBP1L ([5]; 200 μM, insitu, 231): 20.0 |
| Cn1cc(S(=O)(=O)N2CCOCC2)cc1C(=O)NC(=O)CCl [compound 11] |  |  |  |  |  | isoTOP-ABPP ratio Q99497_C106 ([1]; 100 μM in situ 231): 1.3; isoTOP-ABPP ratio Q16831_C162 ([2]; 100 μM in situ 231): 0.8; isoTOP-ABPP ratio O15294_C758 ([3]; 100 μM in situ 231): 1.0; isoTOP-ABPP ratio, cysteine Q96T76_C819 ([4]; 100 μM in situ 231): 0.8; isoTOP-ABPP ratio Q5T0N5_C69 ([5]; 100 μM in situ 231): 1.3 |
| COc1ccccc1OCCNC(=O)CCl [compound 28] | 1.0 | 0.7 | 1.0 |  | 0.8 |  |
| O=C(CCl)NCCc1c[nH]c2ccccc12 [compound 13] |  | 1.0 | 1.0 | 1.0 | 0.6 | isoTOP-ABPP ratio Q99497_C106 ([1]; 200 μM, insitu, ramos): 3.3; isoTOP-ABPP ratio Q96T76_C848 ([4]; 200 μM, insitu, ramos): 1.5 |
| Cc1ccc(C=C(C#N)C(=O)NCCN2CCOCC2)cc1 [compound 41] | 0.6 | 0.8 | 0.9 | 0.6 | 0.7 | isoTOP-ABPP ratio O15294_C620 ([3]; 200 μM, insitu, 231): 1.0; isoTOP-ABPP ratio Q96T76_C819 ([4]; 200 μM, insitu, 231): 0.6 |
| C=CC(=O)Nc1cc(F)c(N2CCN(C(=O)OC(C)(C)C)CC2)c(F)c1 [compound 38] | 1.1 | 1.4 |  | 1.5 |  | isoTOP-ABPP ratio Q96T76_C819 ([4]; 200 μM, insitu, 231): 4.6 |
| C=CC(=O)N(Cc1cccnc1)c1cc(C(F)(F)F)cc(C(F)(F)F)c1 [compound 31] | 0.8 |  |  |  | 20.0 | isoTOP-ABPP ratio Q99497_C106 ([1]; 200 μM, insitu, ramos): 1.0; isoTOP-ABPP ratio O15294_C620 ([3]; 200 μM, insitu, 231): 1.1; isoTOP-ABPP ratio Q96T76_C819 ([4]; 200 μM, insitu, 231): 20.0; isoTOP-ABPP ratio Q96T76_C819 ([4]; 200 μM, insitu, ramos): 20.0 |
| COc1cc2c(cc1OC)CN(C(=O)CCl)CC2 [compound 8] |  |  |  |  |  | isoTOP-ABPP reactivity Q16831_C162 UPP1 ([2]; 200 μM, insitu, 231): 20.0; isoTOP-ABPP reactivity 015294_C758 OGT ([3]; 200 μM, insitu, 231): 2.4; isoTOP-ABPP reactivity Q96T76_C848 MMS19 ([4]; 200 μM, insitu, 231): 1.7; isoTOP-ABPP reactivity Q5T0N5_C69 FNBP1L ([5]; 200 μM, insitu, 231): 3.6 |
